Measured values: patent publication US10681909B2, “Herbicidal triazoles” (FMC Corporation, priority 2014, dated 2020)

Key:
foxtail, giant [1] = assay: Test A preemergence; format: in vivo, Setaria faberii; details: Setaria faberi, pre-emergence, 240 h, 0 to 100 scale (0 no effect, 100 complete control), read-out: Plant response rating, Foxtail, Giant
Summary of the method: (§1)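 Test chemicals, formulated in a surfactant-containing non-phytotoxic solvent mixture, are applied either as a directed soil spray to newly planted seeds or as a postemergence application to plants at the one- to two-leaf stage (2–10 cm). All plants grow in a loam soil and sand blend.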

barnyardgrass [2] = assay: Test A postemergence; format: in vivo, Echinochloa crus-galli; details: Echinochloa crus-galli, post-emergence, 240 h, 0 to 100 scale (0 no effect, 100 complete control), approx. 10 d, read-out: Plant response rating, Barnyardgrass
Summary of the method: as §1

pigweed [3] = assay: Test A postemergence; format: in vivo, Amaranthus retroflexus; details: Amaranthus retroflexus, post-emergence, 240 h, 0 to 100 scale (0 no effect, 100 complete control), approx. 10 d, read-out: Plant response rating, Pigweed
Summary of the method: as §1

corn = assay: Test A postemergence; format: in vivo, Zea mays; details: Zea mays, post-emergence, 240 h, 0 to 100 scale (0 no effect, 100 complete control), approx. 10 d
Summary of the method: as §1

rice = assay: Test B flooded paddy test; format: in vivo, Oryza sativa; details: Oryza sativa, 360 h, 250 g ai/ha, applied to paddy water at 2-leaf stage, visual rating after 13 to 15 d, scale 0 (no effect) to 100 (complete control), read-out: Plant response rating, Rice, Flood
Summary of the method: (§2)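 Pots were flooded to 3 cm above the soil at treatment, and compounds were applied directly into the paddy water. That depth was held throughout. After 13 to 15 d in a greenhouse, plants were rated visually against untreated controls.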

barnyardgrass [4] = assay: Test B flooded paddy test; format: in vivo, Echinochloa crus-galli; details: Echinochloa crus-galli, 360 h, 250 g ai/ha, applied to paddy water at 2-leaf stage, visual rating after 13 to 15 d, scale 0 (no effect) to 100 (complete control), read-out: Plant response rating, Barnyardgrass, Flood
Summary of the method: as §2

wheat (winter wheat) = assay: Test C postemergence; format: in vivo, Triticum aestivum
From the text: (§3) Seeds of plant species selected from blackgrass (Alopecurus myosuroides), ryegrass, Italian (Italian ryegrass, Lolium multiflorum), wheat (winter wheat, Triticum aestivum), galium (catchweed bedstraw, Galium aparine), corn (Zea mays), crabgrass, large (large crabgrass, Digitaria sanguinalis), foxtail, giant, (giant foxtail, Setaria faberii), johnsongrass (Sorghum halepense), lambsquarters (Chenopodium album), morningglory (Ipomoea coccinea), nutsedge, yellow (yellow nutsedge, Cyperus esculentus), pigweed (Amaranthus retroflexus), ragweed (common ragweed, Ambrosia elatior), soybean (Glycine max), barnyardgrass (Echinochloa crus-galli), oilseed rape (Brassica napus), waterhemp (common waterhemp, Amaranthus rudis), and velvetleaf (Abutilon theophrasti) were planted into a blend of loam soil and sand and treated preemergence with test chemicals formulated in a non-phytotoxic solvent mixture which included a surfactant. At the same time, plants selected from these crop and weed species and also chickweed (common chickweed, Stellaria media), oat, wild (wild oat, Avena fatua), and kochia (Kochia scoparia), were planted in pots containing Sunshine Redi-Earth® planting medium comprising spaghnum peat moss, vermiculite, starter nutrients and dolomitic limestone and treated with postemergence applications of test chemicals formulated in the same manner. Plants ranged in height from 2 to 18 cm (1- to 4-leaf stage) for postemergence treatments. […] A dash (-) response means no test result.

crabgrass, large = assay: Test C postemergence; format: in vivo, Digitaria sanguinalis
From the text: as §3

foxtail, giant [5] = assay: Test C postemergence; format: in vivo, Setaria faberii
From the text: as §3

johnsongrass = assay: Test C postemergence; format: in vivo, Sorghum halepense
From the text: as §3

lambsquarters = assay: Test C postemergence; format: in vivo, Chenopodium album
From the text: as §3

morningglory = assay: Test C postemergence; format: in vivo, Ipomoea coccinea
From the text: as §3

nutsedge, yellow = assay: Test C postemergence; format: in vivo, Cyperus esculentus
From the text: as §3

pigweed [6] = assay: Test C postemergence; format: in vivo, Amaranthus retroflexus
From the text: as §3

ragweed = assay: Test C postemergence; format: in vivo, Ambrosia elatior
From the text: as §3

oilseed rape = assay: Test C postemergence; format: in vivo, Brassica napus
From the text: as §3

velvetleaf = assay: Test C postemergence; format: in vivo, Abutilon theophrasti
From the text: as §3

chickweed = assay: Test C postemergence; format: in vivo, Stellaria media
From the text: as §3

oat, wild = assay: Test C postemergence; format: in vivo, Avena fatua
From the text: as §3

kochia = assay: Test C postemergence; format: in vivo, Kochia scoparia
From the text: as §3

With `CCCc1nc(-c2ccc(F)cc2)nn1Cc1ccnc(C(F)(F)F)c1` [Compound 6, 4-[[3-(4-fluorophenyl)-5-propyl-1H-1,2,4-triazol-1-yl]methyl]-2-(trifluoromethyl)pyridine] the pest or weed control at 125 g/ha (foxtail, giant [1]; 125 g ai/ha) was 100%, the pest or weed control at 500 g/ha (foxtail, giant [1]; 500 g ai/ha, approx. 10 d) was 100% and the pest or weed control at 125 g/ha (barnyardgrass [2]; 125 g ai/ha) was 80%. The pest or weed control at 500 g/ha (barnyardgrass [2]; 500 g ai/ha) was 90%, the pest or weed control at 125 g/ha (pigweed [3]; 125 g ai/ha) was 50% and the pest or weed control at 500 g/ha (pigweed [3]; 500 g ai/ha) was 100%. For the same molecule, the Corn plant response rating (crop injury, 0 = no effect, 100 = complete kill) at 125 g/ha (corn; 125 g ai/ha) was 40%, the Corn plant response rating (crop injury, 0 = no effect, 100 = complete kill) at 500 g/ha (corn; 500 g ai/ha) was 70% and the plant injury at 250 g/ha (rice) was 50%. The pest or weed control at 250 g/ha (barnyardgrass [4]) was 40%, the “Plant response rating (scale of 0 to 100 where 0 is no effect and 100 is complete control)” value (wheat (winter wheat); 31 g ai/ha) was 5 and the “Plant response rating (scale of 0 to 100 where 0 is no effect and 100 is complete control)” value (wheat (winter wheat); 62 g ai/ha) was 10. For the same molecule, the “Plant response rating (scale of 0 to 100 where 0 is no effect and 100 is complete control)” value (wheat (winter wheat); 125 g ai/ha) was 15, the “Plant response rating (scale of 0 to 100 where 0 is no effect and 100 is complete control)” value (wheat (winter wheat); 250 g ai/ha) was 15 and the “Plant response rating (scale of 0 to 100 where 0 is no effect and 100 is complete control)” value (crabgrass, large; 31 g ai/ha) was 10. For the same molecule, the “Plant response rating (scale of 0 to 100 where 0 is no effect and 100 is complete control)” value (crabgrass, large; 62 g ai/ha) was 15, the “Plant response rating (scale of 0 to 100 where 0 is no effect and 100 is complete control)” value (crabgrass, large; 125 g ai/ha) was 25 and the “Plant response rating (scale of 0 to 100 where 0 is no effect and 100 is complete control)” value (crabgrass, large; 250 g ai/ha) was 65. The “Plant response rating (scale of 0 to 100 where 0 is no effect and 100 is complete control)” value (foxtail, giant [5]; 31 g ai/ha) was 40, the “Plant response rating (scale of 0 to 100 where 0 is no effect and 100 is complete control)” value (foxtail, giant [5]; 62 g ai/ha) was 40 and the “Plant response rating (scale of 0 to 100 where 0 is no effect and 100 is complete control)” value (foxtail, giant [5]; 125 g ai/ha) was 45. The “Plant response rating (scale of 0 to 100 where 0 is no effect and 100 is complete control)” value (foxtail, giant [5]; 250 g ai/ha) was 75, the “Plant response rating (scale of 0 to 100 where 0 is no effect and 100 is complete control)” value (johnsongrass; 31 g ai/ha) was 10 and the “Plant response rating (scale of 0 to 100 where 0 is no effect and 100 is complete control)” value (johnsongrass; 62 g ai/ha) was 10. For the same molecule, the “Plant response rating (scale of 0 to 100 where 0 is no effect and 100 is complete control)” value (johnsongrass; 125 g ai/ha) was 15, the “Plant response rating (scale of 0 to 100 where 0 is no effect and 100 is complete control)” value (johnsongrass; 250 g ai/ha) was 35 and the “Plant response rating (scale of 0 to 100 where 0 is no effect and 100 is complete control)” value (lambsquarters; 31 g ai/ha) was 65. For the same molecule, the “Plant response rating (scale of 0 to 100 where 0 is no effect and 100 is complete control)” value (lambsquarters; 62 g ai/ha) was 70, the “Plant response rating (scale of 0 to 100 where 0 is no effect and 100 is complete control)” value (lambsquarters; 125 g ai/ha) was 85 and the “Plant response rating (scale of 0 to 100 where 0 is no effect and 100 is complete control)” value (lambsquarters; 250 g ai/ha) was 85. For the same molecule, the “Plant response rating (scale of 0 to 100 where 0 is no effect and 100 is complete control)” value (morningglory; 31 g ai/ha) was 90, the “Plant response rating (scale of 0 to 100 where 0 is no effect and 100 is complete control)” value (morningglory; 62 g ai/ha) was 95 and the “Plant response rating (scale of 0 to 100 where 0 is no effect and 100 is complete control)” value (morningglory; 125 g ai/ha) was 98. For the same molecule, the “Plant response rating (scale of 0 to 100 where 0 is no effect and 100 is complete control)” value (nutsedge, yellow; 31 g ai/ha) was 5, the “Plant response rating (scale of 0 to 100 where 0 is no effect and 100 is complete control)” value (nutsedge, yellow; 62 g ai/ha) was 5 and the “Plant response rating (scale of 0 to 100 where 0 is no effect and 100 is complete control)” value (nutsedge, yellow; 125 g ai/ha) was 5. The “Plant response rating (scale of 0 to 100 where 0 is no effect and 100 is complete control)” value (nutsedge, yellow; 250 g ai/ha) was 5, the “Plant response rating (scale of 0 to 100 where 0 is no effect and 100 is complete control)” value (pigweed [6]; 31 g ai/ha) was 80 and the “Plant response rating (scale of 0 to 100 where 0 is no effect and 100 is complete control)” value (pigweed [6]; 62 g ai/ha) was 80. For the same molecule, the “Plant response rating (scale of 0 to 100 where 0 is no effect and 100 is complete control)” value (pigweed [6]; 125 g ai/ha) was 85, the “Plant response rating (scale of 0 to 100 where 0 is no effect and 100 is complete control)” value (pigweed [6]; 250 g ai/ha) was 85 and the “Plant response rating (scale of 0 to 100 where 0 is no effect and 100 is complete control)” value (ragweed; 31 g ai/ha) was 75. For the same molecule, the “Plant response rating (scale of 0 to 100 where 0 is no effect and 100 is complete control)” value (ragweed; 62 g ai/ha) was 75, the “Plant response rating (scale of 0 to 100 where 0 is no effect and 100 is complete control)” value (ragweed; 250 g ai/ha) was 80 and the “Plant response rating (scale of 0 to 100 where 0 is no effect and 100 is complete control)” value (oilseed rape; Oilsee Rape, 250 g ai/ha) was 95. For the same molecule, the “Plant response rating (scale of 0 to 100 where 0 is no effect and 100 is complete control)” value (oilseed rape; Oilseed Rape, 31 g ai/ha) was 55, the “Plant response rating (scale of 0 to 100 where 0 is no effect and 100 is complete control)” value (oilseed rape; Oilseed Rape, 62 g ai/ha) was 55 and the “Plant response rating (scale of 0 to 100 where 0 is no effect and 100 is complete control)” value (oilseed rape; Oilseed Rape, 125 g ai/ha) was 95. The “Plant response rating (scale of 0 to 100 where 0 is no effect and 100 is complete control)” value (velvetleaf; 31 g ai/ha) was 55, the “Plant response rating (scale of 0 to 100 where 0 is no effect and 100 is complete control)” value (velvetleaf; 62 g ai/ha) was 55 and the “Plant response rating (scale of 0 to 100 where 0 is no effect and 100 is complete control)” value (velvetleaf; 125 g ai/ha) was 55. The “Plant response rating (scale of 0 to 100 where 0 is no effect and 100 is complete control)” value (velvetleaf; 250 g ai/ha) was 55, the “Plant response rating (scale of 0 to 100 where 0 is no effect and 100 is complete control)” value (chickweed; 31 g ai/ha) was 70 and the “Plant response rating (scale of 0 to 100 where 0 is no effect and 100 is complete control)” value (chickweed; 62 g ai/ha) was 80. The “Plant response rating (scale of 0 to 100 where 0 is no effect and 100 is complete control)” value (chickweed; 125 g ai/ha) was 85, the “Plant response rating (scale of 0 to 100 where 0 is no effect and 100 is complete control)” value (chickweed; 250 g ai/ha) was 95 and the “Plant response rating (scale of 0 to 100 where 0 is no effect and 100 is complete control)” value (oat, wild; 31 g ai/ha) was 5. The “Plant response rating (scale of 0 to 100 where 0 is no effect and 100 is complete control)” value (oat, wild; 62 g ai/ha) was 5, the “Plant response rating (scale of 0 to 100 where 0 is no effect and 100 is complete control)” value (oat, wild; 125 g ai/ha) was 10 and the “Plant response rating (scale of 0 to 100 where 0 is no effect and 100 is complete control)” value (oat, wild; 250 g ai/ha) was 10. For the same molecule, the “Plant response rating (scale of 0 to 100 where 0 is no effect and 100 is complete control)” value (kochia; 31 g ai/ha) was 90, the “Plant response rating (scale of 0 to 100 where 0 is no effect and 100 is complete control)” value (kochia; 62 g ai/ha) was 90 and the “Plant response rating (scale of 0 to 100 where 0 is no effect and 100 is complete control)” value (kochia; 125 g ai/ha) was 90. For the same molecule, the “Plant response rating (scale of 0 to 100 where 0 is no effect and 100 is complete control)” value (kochia; 250 g ai/ha) was 90.
